Measured values reported in the supplement of paper PMC10307832.

Tests used:
Test in all cases: relative viability (nuclei count vs DMSO), 5 days (fraction); higher = more cells survive
[1] = compound: O=C(Nc1cc(C(F)(F)F)cc(C(F)(F)F)c1)c1cc(Cl)ccc1O [IMD-0354] + CC(C)C[C@H](NC(=O)[C@H](Cc1ccccc1)NC(=O)c1cnccn1)B(O)O [Bortezomib] (partner 0.002 µM)
How it was run: (§1)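 Relative viability divides the nuclei count in treated wells by that in vehicle wells. Lung cancer cell lines were seeded in 1536-well plates, dosed by pin tool the next day, and fixed and stained after 5 days in one step with final 0.05% Triton X-100, 1% formaldehyde and 1 ug/ml Hoechst. Dosing was a single drug or a fixed anchor-drug dose plus five library-drug doses (not always all listed) in √10 steps, and values are medians of duplicate plates imaged at 4×.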

[2] = compound: Cc1cnc(CNC(=O)c2c(=O)c3ccc(N4CCCN(C)CC4)nc3n3c2sc2ccccc23)cn1 [CX-5461] + Cc1nc(NC(=O)N2CCC[C@H]2C(N)=O)sc1-c1ccnc(C(C)(C)C(F)(F)F)c1 [Alpelisib] (partner 2 µM)
How it was run: as §1

[3] = compound: Cc1cnc(CNC(=O)c2c(=O)c3ccc(N4CCCN(C)CC4)nc3n3c2sc2ccccc23)cn1 [CX-5461]
How it was run: (§2)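 After an overnight hold at 37 °C, lung cancer cell lines in 1536-well plates were pinned with five library-drug doses (not always all listed), each √10 from the next, on vehicle-anchored plates. The cells stayed 5 days without fresh medium, then a one-step fix, permeabilisation and Hoechst stain preceded 4× imaging and MetaXpress nuclear counts. A plate passed only with control CV under 25% and at least one doubling. Viability is the median, over plates, of treated-well nuclei relative to vehicle-well nuclei.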

[4] = compound: O=C(Nc1cc(C(F)(F)F)cc(C(F)(F)F)c1)c1cc(Cl)ccc1O [IMD-0354]
How it was run: as §2

Row | Cell Line | relative viability ([1]; first compound 0.04 µM) | relative viability ([1]; first compound 0.1265 µM) | relative viability ([1]; first compound 0.4 µM) | relative viability ([1]; first compound 1.265 µM) | relative viability ([1]; first compound 4 µM) | relative viability ([2]; first compound 0.01 µM) | relative viability ([2]; first compound 0.03162 µM) | relative viability ([2]; first compound 0.1 µM) | relative viability ([2]; first compound 0.3162 µM) | relative viability ([2]; first compound 1 µM) | relative viability ([3]; 0.01 µM) | relative viability ([3]; 0.03162 µM) | relative viability ([3]; 0.1 µM) | relative viability ([3]; 0.3162 µM) | relative viability ([3]; 1 µM) | relative viability ([4]; 0.04 µM) | relative viability ([4]; 0.1265 µM) | relative viability ([4]; 0.4 µM) | relative viability ([4]; 1.265 µM) | relative viability ([4]; 4 µM)
1 | NCI-H1975 | 0.371 | 0.442 | 0.345 | 0.201 | 0.213 | 0.74 | 0.641 | 0.614 | 0.64 | 0.408 | 1.02 | 0.974 | 0.905 | 0.961 | 0.714 | 0.949 | 0.986 | 0.625 | 0.211 | 0.212
2 | CAL-12T | 1.03 | 0.963 | 0.682 | 0.177 | 0.18 | 1.25 | 1.17 |  | 1.37 | 0.546 | 1.02 | 0.994 | 0.947 | 0.936 | 0.662 | 1.07 | 0.922 | 0.545 | 0.251 | 0.162
3 | NCI-H1623 |  |  |  |  |  |  |  |  |  |  | 1.18 | 0.979 | 0.904 | 0.674 | 0.94 | 0.962 | 1 | 1.02 | 0.992 | 0.451
4 | HCC-44 | 0.913 | 0.918 | 0.35 | 0.213 | 0.179 | 0.752 | 0.991 | 0.839 | 0.827 | 0.753 | 0.956 | 0.998 | 0.964 | 0.98 | 0.839 | 0.967 | 1.03 | 0.497 | 0.301 | 0.194
5 | EKVX | 1 | 1.39 |  | 0.716 | 0.187 | 0.93 | 0.865 | 0.902 |  | 0.883 | 1.11 | 1.05 | 1.05 | 0.677 | 0.915 | 1 | 0.972 | 0.589 | 0.915 | 0.358
6 | NCI-H1651 | 0.828 | 0.968 | 0.404 | 0.516 | 0.153 |  | 0.79 |  | 0.665 | 0.115 | 0.956 | 0.871 | 0.57 | 0.959 | 0.371 | 1.04 | 0.983 | 0.577 | 0.402 | 0.139
7 | NCI-H2170 |  |  |  |  |  | 0.766 | 0.834 | 0.889 | 0.913 | 0.718 | 1.03 | 1.02 | 1.08 | 1 | 1.02 | 0.956 | 1.02 | 0.777 | 0.806 | 0.226
8 | SK-MES-1 |  |  |  |  |  | 0.886 | 0.964 | 1.08 | 0.952 | 0.522 | 1.1 | 1.09 | 1.04 | 1.06 | 0.724 | 1.16 | 0.996 | 0.645 | 0.463 | 0.223
9 | NCI-H1944 |  |  |  |  |  | 0.806 | 0.936 | 0.808 |  | 0.831 | 1 | 1.14 | 0.994 | 0.358 | 0.318 | 0.866 | 0.981 | 0.653 | 0.74 | 0.156
10 | ChaGo-K-1 | 1.39 | 1.21 | 0.67 | 0.326 | 0.39 |  |  |  |  |  | 1.02 | 0.967 | 1.04 | 0.571 | 0.552 | 1.12 | 1.08 | 0.751 | 0.339 | 0.267
11 | NCI-H522 |  |  |  |  |  |  |  |  |  |  | 0.98 | 0.944 | 0.946 |  | 0.951 | 0.934 | 0.848 | 0.909 | 0.7 | 0.406
12 | NCI-H1650 | 0.205 | 0.196 | 0.189 | 0.166 | 0.197 |  |  |  |  |  | 0.965 | 0.948 | 0.406 | 0.794 | 0.205 | 0.96 | 0.771 | 0.616 | 0.252 | 0.174
13 | NCI-H1648 |  |  |  |  |  |  |  |  |  |  | 0.614 | 0.952 | 0.674 | 0.742 | 0.851 | 0.588 | 0.686 | 0.685 | 0.814 | 0.365
14 | LK-2 |  |  |  |  |  |  | 1.22 | 1.37 |  | 0.864 | 0.89 | 1.07 | 1.13 |  | 0.783 | 1.19 | 0.986 |  | 1 | 0.271
15 | NCI-H2342 |  |  |  |  |  |  |  |  |  |  | 0.997 | 1 | 0.834 | 1.04 | 0.889 | 1.03 | 1.05 | 0.764 | 0.633 | 0.476
16 | SW 900 |  |  |  |  |  |  |  |  |  |  | 0.918 | 1.11 | 0.586 | 0.877 | 0.401 | 0.987 | 0.889 | 0.509 | 0.239 | 0.243
17 | NCI-H1395 |  |  |  |  |  | 1.31 | 0.935 | 0.897 | 0.704 | 0.561 | 0.978 | 0.853 | 0.816 | 0.475 | 0.588 | 1.15 | 0.989 | 0.823 | 0.324 | 0.296
18 | NCI-H1793 |  |  |  |  |  | 0.769 | 0.668 | 0.772 | 0.71 | 0.726 | 0.989 | 1.1 | 0.875 | 0.997 | 0.942 | 1.09 | 0.759 | 0.499 | 0.229 | 0.213
19 | A549 |  |  |  |  |  | 0.771 | 0.561 |  | 0.508 | 0.0561 | 0.969 | 0.96 | 0.748 | 0.811 | 0.193 | 1.11 | 0.991 | 0.496 | 0.229 | 0.109
20 | NCI-H358 |  |  |  |  |  | 0.997 | 0.883 | 0.413 | 0.593 | 0.27 | 0.971 | 1.02 | 0.872 | 0.871 | 0.633 | 1.01 | 1 | 0.557 | 0.232 | 0.274
